Paper PMC9851200, “Multiparameter phenotypic screening for endogenous TFEB and TFE3 translocation identifies novel chemical series modulating lysosome function” (Autophagy, 2022)
Like-named read-outs stand apart in the source and are kept apart here.

Experiments:
SH-SY5Y cells [1] = assay: Nuclear count from microscopy images (cellular growth and toxicity); note: reference of the scale not given here
SH-SY5Y cells [2] = tested on: SH-SY5Y cells; note: reference of the scale not given here
endogenous TFE3 = assay: TFE3 nuclear translocation, immunocytochemistry high-content imaging; format: cell-based
endogenous TFEB = assay: TFEB nuclear translocation, immunocytochemistry high-content imaging; format: cell-based
SH-SY5Y cells [3] = assay: AK (adenylate kinase) release ToxiLight cytotoxicity assay; note: reference of the scale not given here
[4] = PKIS2 primary screening, DQ Red BSA intensity
[5] = PKIS2 primary screening, DQ Red BSA spot count

| SMILES | Nuclear Count (SH-SY5Y cells [1]; PKIS2 primary screening) | DQ Intensity (SH-SY5Y cells [2]; [4]) | DQ Spot (SH-SY5Y cells [2]; [5]) | TFE3 % (endogenous TFE3; PKIS2 primary screening) | TFEB % (endogenous TFEB; PKIS2 primary screening) | AK (SH-SY5Y cells [3]; PKIS2 primary screening) | DQ Intensity (SH-SY5Y cells [2]; PKIS2 primary screening) | DQ Spot (SH-SY5Y cells [2]; PKIS2 primary screening) | Nuclear Count (SH-SY5Y cells [1]; PKIS2 primary screen) | DQ Intensity (SH-SY5Y cells [2]; PKIS2 primary screen, DQ Red BSA intensity) | DQ Spot (SH-SY5Y cells [2]; PKIS2 primary screen, DQ Red BSA spot count) | TFE3 % (endogenous TFE3; PKIS2 primary screen) | TFEB % (endogenous TFEB; PKIS2 primary screen) | AK (SH-SY5Y cells [3]; PKIS2 primary screen) |
| --- | --- | --- | --- | --- | --- | --- | --- | --- | --- | --- | --- | --- | --- | --- |
| COc1ccc(-c2nc3n(c2-c2ccncc2)CCC3)cc1 [UNC10225334B] | 89.36 | 91.69 | 94.15 | 11.14% | 9.58% | 75.67 |  |  |  |  |  |  |  |  |
| CC1=C(C(=O)Nc2cc3cn[nH]c3cc2F)C(c2ccc(C(F)(F)F)cc2)CC(=O)N1 (stereo not drawn) [UNC10225339A] | 108.36 |  |  | 22.61% | 3.31% | 70.62 | 158.90 | 127.41 |  |  |  |  |  |  |
| Nc1ncnc2c1nc(-c1ccccc1)n2-c1ccccc1 [UNC10225340A] | 115.47 |  |  | 8.63% | 8.74% | 115.76 | 122.27 | 108.09 |  |  |  |  |  |  |
| CCS(=O)(=O)c1ccc(OC)c(Nc2nccc(-c3c(-c4cccc(NC(=O)c5c(F)cccc5F)c4)nn4ncccc34)n2)c1 [UNC10225342A] | 104.33 |  |  | 13.07% | 6.81% | 86.17 | 69.43 | 80.86 |  |  |  |  |  |  |
| O=c1cc(N2CCOCC2)nc2n(Cc3ccc(F)c(Cl)c3)ccn12 [UNC10225343A] | 115.81 |  |  | 7.68% | 4.66% | 80.61 | 102.25 | 107.68 |  |  |  |  |  |  |
| C[C@@H](Oc1cc(-n2cnc3ccc(-c4ccncc4)cc32)sc1C(N)=O)c1ccccc1Cl [UNC10225348A] | 41.11 |  |  | 36.52% | 10.36% | 91.16 | 133.73 | 158.98 |  |  |  |  |  |  |
| O=C(Nc1c(F)cccc1F)c1cc(C(=O)c2ccccc2F)c[nH]1 [UNC10225351A] |  |  |  |  |  |  |  |  | 134.69 | 115.15 | 113.72 | 7.96% | 3.75% | 106.59 |
| OCCCNc1nccc(-c2c(-c3cccc(C(F)(F)F)c3)nn3cc(C(F)(F)F)ccc23)n1 [UNC10225352A] | 112.73 |  |  | 11.93% | 4.95% | 111.75 | 93.14 | 97.34 |  |  |  |  |  |  |
| Cc1ccc(NC(=O)Nc2cc(C(C)(C)C)nn2-c2ccccc2)cc1 [UNC10225353A] | 116.98 |  |  | 7.76% | 9.78% | 76.54 | 116.80 | 100.99 |  |  |  |  |  |  |
| Cc1ccccc1Cn1ccn2c(=O)cc(N3CCOCC3)nc12 [UNC10225355A] | 89.36 |  |  | 15.51% | 2.12% | 91.19 | 95.37 | 115.18 |  |  |  |  |  |  |
| Cc1cccc(Nc2nc(N[C@H]3CCNC3)ncc2C(N)=O)c1.Cl [UNC10225356A] | 97.71 |  |  | 8.51% | 10.40% | 117.33 | 128.58 | 110.55 |  |  |  |  |  |  |
| Cc1cc(-c2c(-c3ccc(F)cc3)ncn2CCCN2CCOCC2)nc(N)n1 [UNC10225357A] | 103.52 |  |  | 18.76% | 6.16% | 146.53 | 102.69 | 106.97 |  |  |  |  |  |  |
| Clc1ccc(-c2nn3ncccc3c2-c2ccnc(Nc3ccc4c(c3)OCCO4)n2)cc1 [UNC10225358A] | 125.14 |  |  | 11.64% | 8.16% | 157.53 | 88.44 | 98.66 |  |  |  |  |  |  |
| Cc1ccc(NC(=O)Nc2ccc(Cl)c(C(F)(F)F)c2)cc1-c1ccc(C(=O)Nc2ccncc2)cc1 [UNC10225359A] | 100.74 |  |  | 18.34% | 9.28% | 88.88 | 70.67 | 82.92 |  |  |  |  |  |  |
| Oc1ccc2ncnc(Nc3ccc(OCc4ccccc4)cc3)c2c1 [UNC10225360A] | 101.58 | 120.31 | 114.21 | 13.64% | 5.47% | 98.47 |  |  |  |  |  |  |  |  |
| CC(C)(C)n1cnc2c(N)ncnc21 [UNC10225362A] | 45.84 |  |  | 7.46% | 5.16% | 102.90 | 122.93 | 124.24 |  |  |  |  |  |  |
| CC(C)(C)c1ccc(-n2cnc3c(N)ncnc32)cc1 [UNC10225367A] | 71.05 |  |  | 12.53% | 8.78% | 79.86 | 128.98 | 104.53 |  |  |  |  |  |  |
| Nc1ncc(-c2cccnc2)c2scc(-c3ccc4c(c3)CCN4C(=O)Cc3ccccc3)c12 [UNC10225369A] | 102.35 | 84.54 | 86.78 | 19.63% | 3.58% | 64.72 |  |  |  |  |  |  |  |  |
